In EP0491041A1, “ANTIVIRAL DRUG” (NIPPON SHINYAKU COMPANY, LIMITED, priority 1989, dated 1991):
Converted amounts (≈) assume the structure as drawn.

Experiments:
[1] = Acute toxicity test in mice; type: in vivo; settings: male mice, ddY strain, observation for one week
Procedure: Four male mice (ddY strain; six weeks age) were used for each drug tested.
In the intraperitoneal administration, each drug was suspended in 0.5% CMC-physiological saline solution and 0.1 ml (per 10 g body weight of mouse) of the suspension was intraperitoneally given to mouse. In the case of oral administration, each drug was suspended in 0.5% CMC-physiological saline solution and 0.2 ml (per 10 g body weight of mouse) of the suspension was given orally. Observation was started soon after administration and, after observation for one week, the mice were killed by chloroform and subjected to autopsied. LD₅₀ of each drug tested was given in the following tables wherefrom it is clear that the compounds of the present invention are safe.

virus = assay: Antiviral action test: screening by inhibition of cell degeneration effect (CPE) in virus-infected HeLa cells; type: cell-based; settings: amount of added drug whereby the CPE became 50%, M.O.I = 0.002, culture for three days
Procedure: HeLa cells were subjected to subcultured by monolayer culture (Eagle's MEM-10% CS) and infected as M.O.I. (multiplicity of infection) = 0.01.
On the first day, HeLa cells were spread in a 75 cm³ flask and cultured on a one-day growth medium (Eagle's MEM-10% CS). On the second day, old medium was removed after confirming the formation of cell sheet, then M.O.I was made 0.01 PFU/cell and 0.5 ml of virus solution was added. The original virus solution was diluted with PBS-3% FCS solution. Operation of the virus inoculation was conducted by tilting for 1 hour at room temperature. After virus was inoculated on the cells, the virus-inoculated solution was removed, washed twice with 10 ml PBS and the residual virus solution was removed. Then 15 ml of maintenance medium (Eagle's MEM-1% CS) was added and cultured at 37°C for 2 days. The cells were observed from time to time and the culture was continued until cell fusion and cell rounding were confirmed. After the culture, medium was recovered which was used as a virus solution and was stored at -20°C until actual use.
The 78 cm³ flask containing HeLa cells which were subjected to a monolayer maintenance subculture was taken out, the old medium was discarded, 2-3 ml of 0.25% trypsine (Difco = 1:250)-0.02% EDTA/PBS(-) solution was added, tilted for a few seconds, the trypsine solution was removed and warmed at 37°C for 5 minutes. Then fresh medium was added, pipetted with a Komagome pipette and the cells were homogeneously dispersed.
Cells were counted using a cytometer, then fresh medium was added, diluted to make the cell concentration 5 x 10⁵ cells/ml, 2 ml of that was added to a laboratory dish of 35 mm diameter and cultured in a CO₂-incubator at 37°C for one day to prepare cell sheet.
The virus solution was diluted by a diluting solution to make diluted solutions of ten-times difference or step. The laboratory dish wherein HeLa cells were cultured on the previous day was taken out from the incubator, old medium was discarded and the cells were washed with each 2 ml of PBS twice. Properly diluted virus solution (0.2 ml) was added to each laboratory dish, subjected to a tilting at room temperature for 60 minutes immediately and virus was inoculated. Then the virus solution was removed, each 2 ml of 0.5% methylcellulose/Eagle's MEM-1% CS was added and cultured in a CO₂ incubator for 4 days.
The cultured laboratory dish was taken out from the CO₂-incubator and methylcellulose medium was removed. Then cells were washed with 2 ml of PDS, 2 ml of methanol was added, allowed to stand for 10 minutes and cells were immobilized and, at the same time, virus was sterilized. Hematoxylin dyeing solution (2 ml) was added to the laboratory dish which was immobilized with methanol, allowed to stand for about 10 minutes, washed with water and air-dried at room temperature. Since the cells destructed with virus were not dyed, plaque area was noted as a void and the plaque numbers were counted whereby virus value (PFU/ml) (Plaque forming units/ml) was measured.
HeLa cells during the subculture were dispersed with trypsine liquid-EDTA solution, 5 x 10⁵ cells/pore were embedded on a plate having 24 pores and cultured overnight at 37°C in a CO₂-incubator to prepare cell sheet.
As mentioned above, old medium was discarded, the cells were washed with PBS, the virus solution was diluted to make M.O.I = 0.002, 0.1 ml of it was added to each pore, subjected to a tilting at room temperature for 60 minutes and virus was inoculated to the cell.
Virus solution was removed from the cells after inoculation of virus, the cells were washed with 2 ml of PBS, each 1 ml of maintenance medium was added to each pore, then each 10 µl of the drug was added and the cells were cultured in a CO₂-incubator. Culture was conducted for three days.
The cells on the plate were observed under an invert microscope. Cell degeneration effect (CPE) was observed as cell fusion and making the cells round. […]

SMILES | L D ₅₀ ([1]; Intraperitoneal Administration) [mg/kg] | L D ₅₀ ([1]; Oral Administration) | EC50 (50% CPE inhibition) (virus) [µg/mL]
CC(=CCN1C[C@H](O)[C@@H](O)[C@H](O)[C@H]1CO)c1ccc(C)cc1 [Compound No. 104, N-(gamma-Methyl-4-methylcinnamyl)moranoline] | > 300 | > 5,000 mg/kg | 10 (≈ 32.5 µM)
CC(=CCCN1C[C@H](O)[C@@H](O)[C@H](O)[C@H]1CO)c1ccc(Oc2ccccc2)cc1 [Compound No. 115, N-[4-(4-Phenoxyphenyl)-3-pentenyl]moranoline] | > 300 | > 5,000 mg/kg | 1 (≈ 2.5 µM)
OC[C@@H]1[C@@H](O)[C@H](O)[C@@H](O)CN1CCCCOc1ccc(Cl)cc1 [Compound No. 141, N-[4-(4-Chlorophenoxy)butyl]moranoline] | > 300 | > 5,000 mg/kg | 1 (≈ 2.89 µM)
